Source: patent publication US20040192734A1, “4-(3-aminomethylphenyl)piperidin-1-yl]-[5-(2-fluorophenylethynyl)furan-2-yl]-methanone as an inhibitor of mast cell tryptase” (AVENTIS PHARMACEUTICALS INC., priority 2002, published 2004)
Values joined by “and” are separate entries in the source; they are usually repeats but may differ in a detail not shown here. Equal entries are not always repeated. Structures can show the parent of a compound that is named as a salt. Where two headings read alike, the source gives them in different places.

Legend:
[1] = target: T1, recombinant human β tryptase (Homo sapiens, UniProt Q15661); test: β-Tryptase Inhibition (chromogenic assay); type: biochemical; details: for Ki: chromogenic assay, substrate S2366 0.5 mM, room temperature, Ki calculated from IC50
T1 construct: made in house; host or cells: yeast cells
Description: Tr0yptase inhibition activity is confirmed using either isolated human lung tryptase or recombinant human β tryptase expressed in yeast cells. Essentially equivalent results are obtained using isolated native enzyme or the expressed enzyme. The assay procedure employs a 96 well microplate (Costar 3590) using L-pyroglutamyl-L-prolyl-L-arginine-para-nitroanilide (S2366: Quadratech) as substrate (essentially as described by McEuen et. al. Biochem Pharm, 1996, 52, pages 331-340). Assays are performed at room temperature using 0.5 mM substrate (2×Km) and the microplate is read on a microplate reader (Beckman Biomek Plate reader) at 405 nm wavelength. The inhibition constants (Ki) for the compound of the present invention and other structurally related compounds, are set forth in Table 1.
Materials and Methods for Trtase Primary Screen (Chromogenic Assay)
S2366 (Stock solutions of 2.5 mM).
Purified recombinant beta Tryptase Stocks of 310 μg/mL.
Add 60 μL of diluted substrate (final concentration of 500 μM in assay buffer) to each well
Add compound in duplicates, final concentration of 20 μM, volume 20 μL
Add enzyme at a final concentration of 50 ng/mL in a volume of 20 μL
Total volume for each well is 100 μL
Agitate briefly to mix and incubate at room temp in the dark for 30 minutes
Read absorbencies at 405 nM
Protocol (IC50 and Ki Determination)
The protocol is essentially the same as above except that the compound is added in duplicates at the following final concentrations: 0.01, 0.03, 0.1, 0.3, 1, 3, 10 uM (All dilutions carried out manually). For every assay, whether single point or IC50 determination, a standard compound is used to derive IC50 for comparison. From the IC50 value, the Ki can be calculated using the following formula:
Ki=IC50/(1+[Substrate]/Km).

[2] = test system: Airway Hyperresponsiveness (AHR) to histamine in sensitized guinea pigs; test: Guinea Pig Model of Airway Hyperreactivity; type: in vivo; details: for protective effect as measured by airway resistance / protective effect as measured by lung compliance: intravenous dosing at 0.3, 1 and 3 mg/kg; for Intravenous ID50 Dynamic Lung Compliance: Cdyn40, histamine challenge; for Intravenous ID50 Dynamic Lung Compliance / Intravenous ID50 Airway Hyperresponsiveness: ovalbumin-sensitized guinea pigs; for Intravenous ID50 Airway Hyperresponsiveness: airway resistance (RL300), histamine challenge
[3] = test system: Airway Hyperresponsiveness (AHR) to histamine in sensitized guinea pigs; test: Guinea Pig Model of Airway Hyperreactivity; type: in vivo; details: for protection against AHR to histamine, airway resistance: oral dosing, Structure (III) where X=H dosed at 3, 10, and 30 mg/kg; for protection against AHR to histamine, airway resistance / Oral ID50 Dynamic Lung Compliance / Oral ID50 Airway Hyperresponsiveness: 2 hours prior to ovalbumin challenge; for Oral ID50 Dynamic Lung Compliance: Cdyn40; for Oral ID50 Airway Hyperresponsiveness: airway resistance (RL300)
Procedure: Sensitization and drug treatment: Male Hartley guinea pigs (225-250g) are sensitized with ovalbumin (0.5 mL of 1% solution, i.p. and s.c.). On day 4, animals received a booster injection (i.p.) of 0.5 mL of 1% ovalbumin. On day 21, animals are orally dosed (2 ml/kg) with either vehicle (0.5% methylcellulose/0.2% Tween 80) or test compound 2 hours prior to antigen challenge. Thirty minutes before antigen challenge the animals are also injected with mepyramine (30 mg/kg, i.p.) to prevent anaphylactic collapse. Animals are then exposed for 5 minutes to an aerosol of either saline (control animals) or 1% ovalbumin using a deVilbiss Ultraneb nebulizer.
AHR measurement: Eighteen to twenty four hours after challenge, animals are anesthetized with a combination of ketamine (133 mg/kg) and xylazine (24 mg/kg) given intramuscularly, surgically prepared and then mounted in a whole body plethysmograph for lung function measurement. Animals were connected to Ugo-Basile ventilators delivering a tidal volume of 1 mL/100 g at a rate of 50 breaths/minute via a tracheal cannula. The jugular vein is also cannulated for histamine challenge. A water filled oesophageal cannula is placed such that transpulmonary pressure could be recorded. Transpulmonary pressure is measured as the difference between the tracheal and esophageal cannulas using a differential pressure transducer. The volume, airflow, and transpulmonary pressure signals are monitored using a pulmonary analysis system (Buxco XA software) and used to calculate pulmonary resistance (cm H2O/mL/s) and dynamic compliance (mL/cm H2O). Airway resistance and dynamic compliance were computed on a breath by breath basis. Histamine is administered intravenously and reactivity to increasing concentrations (0.1-10 μg/kg) assessed. ID50's are estimated from the RL300 (histamine concentration required to 300% increase in lung resistance) and Cdyn40 (histamine concentration required to induce a 40% decrease in dynamic lung compliance) parameters deduced from the individual […] a histamine dose-response curves.

[4] = target: T1, recombinant human β tryptase; details: greatest β-Tryptase inhibitory potency disclosed in U.S. application Ser. No. 09/843,126; cited from earlier work
[5] = listed as compound of the present invention, trifluoroacetate

T1 sequence (Q15661 31-275): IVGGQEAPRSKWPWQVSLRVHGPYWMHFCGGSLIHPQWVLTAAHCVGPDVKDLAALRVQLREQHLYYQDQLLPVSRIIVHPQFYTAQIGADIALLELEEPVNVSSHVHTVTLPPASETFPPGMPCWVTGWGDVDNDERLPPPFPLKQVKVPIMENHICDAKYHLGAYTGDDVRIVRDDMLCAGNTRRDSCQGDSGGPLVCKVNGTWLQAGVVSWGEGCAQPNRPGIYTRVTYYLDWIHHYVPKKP

Compound | Ki [1] | protective effect as measured by airway resistance [2] | protective effect as measured by lung compliance [2] | Intravenous ID50 Dynamic Lung Compliance [2] | Intravenous ID50 Airway Hyperresponsiveness [2] | protection against AHR to histamine, airway resistance [3] | Oral ID50 Dynamic Lung Compliance [3] | Oral ID50 Airway Hyperresponsiveness [3] | also measured
NCc1cccc(C2CCN(C(=O)c3cccc(C#Cc4ccccc4)c3)CC2)c1.O=C(O)C(F)(F)F [Structure (II) where X = H, [4-(3-aminomethylphenyl)piperidin-1-yl]-(3-phenylethynylphenyl)methanone trifluoroacetate] | 106 nM | uniformly ineffective | does not show any protective effects | >3.0 mg/kg | >3.0 mg/kg | – | – | – | –
NCc1cccc(C2CCN(C(=O)c3cccc(C#Cc4ccccc4F)c3)CC2)c1.O=C(O)C(F)(F)F [Structure (II) where X=F, [4-(3-aminomethylphenyl)piperidin-1-yl]-[3-(2-fluorophenylethynyl)phenyl]methanone trifluoroacetate] | 97 nM | – | – | – | – | – | – | – | fold increase in β-Tryptase inhibitory potency ([1]; Structure (II) where X=F versus Structure (II) where X=H): 1.09 fold
NCc1cccc(C2CCN(C(=O)c3ccc(C#Cc4ccccc4F)o3)CC2)c1 [Structure (III) where X = F, [4-(3-Aminomethylphenyl)piperidin-1-yl]-[5-(2-fluorophenylethynyl)furan-2-yl]-methanone trifluoroacetate] | 7.6 to 9.7 nM and 7.6 nM and 9.7 nM | protective at all doses | protective at all doses | – | – | significantly protects against AHR to histamine | 1 to 2 mg/kg | 1 to 2 mg/kg | effect on basal airway resistance ([3]; sensitized guinea pigs): no effect; effect on basal dynamic lung compliance ([3]; sensitized guinea pigs): no effect; Intravenous ID50 Dynamic Lung Compliance [2, 5]: < 0.3 mg/kg; Intravenous ID50 Dynamic Lung Compliance ([2]; trifluoroacetate): <0.3 mg/kg; Intravenous ID50 Airway Hyperresponsiveness [2, 5]: < 0.3 mg/kg; Intravenous ID50 Airway Hyperresponsiveness ([2]; trifluoroacetate): <0.3 mg/kg
NCc1cccc(C2CCN(C(=O)c3ccc(C#Cc4ccccc4)o3)CC2)c1.O=C(O)C(F)(F)F [Structure (III) where X = H, [4-(3-aminomethylphenyl)piperidin-1-yl]-(5-phenylethynylfuran-2-yl)methanone trifluoroacetate] | 31 nM | reversed airway resistance at the highest dose | does not show any protective effects | >3.0 mg/kg | 1 to 3 mg/kg | protective on airway resistance, but the effects are not statistically significant | >30 mg/kg | Protective at 3, | fold increase in β-Tryptase inhibitory potency ([1]; Structure (III) where X=H versus Structure (II) where X=H): 3.42 fold; effect on lung compliance ([3]; oral dosing at 3, 10, and 30 mg/kg): No effect
NCc1cccc(C2CCN(C(=O)c3ccc(Cl)c(Cl)c3)CC2)c1 [[4-(3-Aminomethylphenyl)piperidin-1-yl]-(3,4-dichlorophenyl) methanonetrifluoroacetate] | – | – | – | – | – | – | – | – | Ki [4]: 31 nM
